Test results taken from patent publication US5912227A, “Method of enhancing nutrient uptake” (North Carolina State University, priority 1995, dated 1999).

Key:
[1] = Visceral organ weight of treated mice; format: in vivo, swiss-webster mice
Procedure: (§1) Two month old male swiss-webster mice obtained from Charles River Laboratory were subcutaneously injected in the post-scapula region once a day for three days with one of the following treatments: (1) Saline treatment: 0.25 ml of sterile physiological saline (0.9% saline) (n=9 mice); (2) Peptide YY (PYY) treatment: 300 μg per kilogram body weight of Peptide YY in 0.25 ml sterile physiological saline solution (n=6 mice); (c) Somatostatin treatment: 120 μg per kilogram body weight of somatostatin in 0.25 ml sterile physiological saline solution (n=6 mice); or (4) Transforming Growth Factor alpha (TGFα) treatment: 300 μg per kilogram body weight of TGFα in 0.25 ml sterile physiological saline solution (n=6 mice).
After the treated mice were sacrificed by cervical dislocation as described in Example 2, the visceral organs were dissected out and the liver, stomach, kidneys, colon and caecum of each mouse was weighed. The kidneys of the PYY treatment group were heavier than those of other treatment groups for unknown reasons.

[2] = tested on: jejunal oxygen consumption; assay: Jejunal oxygen consumption of treated mice, with and without ouabain; format: in vivo, swiss-webster mice; details: jejunum of treated mice, 37° C.; for Oxygen Consumption, With Ouabain, Dry / Oxygen Consumption, Without Ouabain, Dry: dry tissue; for Oxygen Consumption, With Ouabain, Wet / Oxygen Consumption, Without Ouabain, Wet: wet tissue
Procedure: as §1
Measurement of oxygen consumption rate was determined as described by McBride and Milligan, Br. J. Nutr., 53:605 (1985) for ovine duodenal mucosa, and as described by Bird et al., J. Nutr. 124:231 (1994) for mice jejunum, using an oxygen monitor and an incubation bath fitted with an O2 electrode (Yellow Springs Instruments, Yellow Springs, Ohio, USA). Adjacent jejunal ring samples (two from each mouse jejunum) were prepared by rinsing in ice-cold HEPES transport buffer to remove digesta residues. The rate of O2 uptake of the duplicate jejunal samples, constantly stirred in 4 ml of media at 37° C., was electronically recorded. After 3 minutes, 100 uL of 12.6 mmol/L ouabain (Sigma Chemical), a specific inhibitor of Na+, K+-ATPase, was added to the chamber and oxygen consumption was plotted for 3 minutes. Dry matter content of the tissue pieces was then measured by drying the jejunal samples at 80° C. in a forced draught oven for 48 hours.

[3] = tested on: jejunal glucose transport (S-GLT1 transporter); assay: Jejunal glucose transport ([3H]3-O-methyl-D-glucose uptake by jejunal rings of treated mice, with and without phlorizin); format: in vivo, swiss-webster mice; details: for Glucose Transport, Total / Glucose Transport, Active / Glucose Transport, Passive: mid-jejunal rings of treated mice; for Glucose Transport, Total: 37° C. without phlorizin minus 4° C. with phlorizin; for Glucose Transport, Active: difference of 3OMG accumulation with and without phlorizin, 37° C.; for Glucose Transport, Passive: with phlorizin, 37° C. minus 4° C.
Procedure: as §1
A sample of mid-jejunal tissue was dissected out of each of the small intestines removed in Example 2. As described below, each glucose transport assay was replicated three times per mouse, and an assay to measure non-specific binding was replicated twice per mouse. Thus each mid-jejunal sample (one from each mouse) was cut into eight one millimeter rings.
The assay for glucose transport was a modification of the assay validated by Black, Comp. Biochem Physiol. 90A:379 (1988) to measure glucose transport in embryonic chick duodenum. Additional details of the present method as modified for mouse intestine are discussed in Bird et al., J. Nutr. 124:231 (1994), and the method is validated for mice in Bird et al., Nutr. Research, 14:411 […]. The transport buffer utilized for jejunal samples was similar to that described by Black (1988) but also contained 0.5 mmol/L 3-O-methyl-D-glucose (3 OMG), 0.5 mmol/L B-hydroxybutyrate, and 2.5 mmol/L glutamine. The assay was started by transferring intestinal rings preincubated at 37° C. for 5 minutes in transport buffer to beakers containing 28 MBq/L of [^3 H]3 OMG in 2 ml of buffer. To differentiate active from passive transport, phlorizin (phloretin-2'-β-D-glucoside; Sigma Chemicals, St. Louis, Mo.) was utilized. Phlorizin is a specific inhibitor of the S-GLT1 transporter (a sodium dependent active transporter) located on the luminal surface of absorptive epithelium (see Brot-Laroche and Alvarado, Mechanisms of sugar transport across the intestinal brush border membrane, IN: Intestinal Transport: Fundamental and Comparative Aspects, Gilles-Baillin and Gilles (Eds.), Springer-Verlag, Berlin (1983)). The S-GLT1 transporter is one of a family of transporter proteins, and actively transports glucose.
Uptake of [^3 H]3 OMG was stopped after 5 minutes by rinsing samples in 3 ml of ice-cold mannitol (300 mmol/L). Labelled substrate was extracted from the tissue into 2 mL of trichloroacetic acid (25 g/L) at 37° C. for 60 minutes in a shaking water bath. Samples were removed, blotted and weighed. The extract was centrifuged at 2000×g for 15 minutes at 4° C., and then 1 ml of the decanted supernatant was dispersed in 5 ml of Ecolite (+) scintillation cocktail (ICN Biomedicals, Cleveland, Ohio) and counted for 10 minutes in a scintillation counter. Duplicate aliquots (100 uL) of incubation media containing approximately 2.8 kBq [^3 H]3 OMG (both with and without phlorizin) and a blank were counted with each set of samples.
Active glucose transport was calculated as the difference between 3 OMG accumulation in media with and without phlorizin. Passive transport was calculated as the difference between 3 OMG accumulation in the presence of phlorizin at 37° C. and 4° C. Total transport is the difference between 3 OMG accumulation at 37° C., in the absence of phlorizin, and accumulation at 4° C. in the presence of phlorizin. Transport data are presented as pmol glucose/(min-mg wet tissue). Fasting body weight of the mice was used to express data on a body weight basis.

[4] = tested on: Na-dependent active glucose uptake; assay: Energetic efficiency of Na-dependent active glucose uptake; format: in vivo, swiss-webster mice; details: compared with saline control; 1 nmol O2 assumed = 5 nmol ATP; FIG. 1
Procedure: The energetic efficiency of Na-dependent active glucose uptake in the PYY treated mice and the saline control treated mice was calculated, assuming that consumption of 1 nmol of O2 (as measured in Example 5, above) indicated expenditure of 5 nmol of ATP (Gill et al., J. Nutr. 119:1287-1299 (1989).

[5] = tested on: water and electrolyte absorption from the small intestine; details: unfed dogs, peripheral infusion; cited from earlier work
[6] = tested on: sodium-dependent duodenal active transport; details: sheep injected with recombinant bovine growth hormone; cited from earlier work
[7] = mice, s.c. once a day for three days

| Molecule | Oxygen Consumption, With Ouabain, Dry [2] [µL/min/g] | Oxygen Consumption, Without Ouabain, Dry [2] [µL/min/g] | Oxygen Consumption, With Ouabain, Wet [2] [µL/min/g] | Oxygen Consumption, Without Ouabain, Wet [2] [µL/min/g] | Glucose Transport, Total [3] [pmol/min/mg tissue] | Glucose Transport, Active [3] [pmol/min/mg tissue] | Glucose Transport, Passive [3] [pmol/min/mg tissue] | Organ Weight, Caecum ([1]; mouse, in vivo, sc) [mg] | Organ Weight, Colon ([1]; mouse, in vivo, sc) [mg] | Organ Weight, Kidneys ([1]; mouse, in vivo, sc) [mg] | Organ Weight, Liver ([1]; mouse, in vivo, sc) [mg] | Organ Weight, Stomach ([1]; mouse, in vivo, sc) [mg] | other results |
| --- | --- | --- | --- | --- | --- | --- | --- | --- | --- | --- | --- | --- | --- |
| C[C@H](N)C(=O)NCC(=O)N[C@H]1CSSC[C@@H](C(=O)O)NC(=O)[C@H](CO)NC(=O)[C@H]([C@@H](C)O)NC(=O)[C@H](Cc2ccccc2)NC(=O)[C@H]([C@@H](C)O)NC(=O)[C@H](CCCCN)NC(=O)[C@H](Cc2c[nH]c3ccccc23)NC(=O)[C@H](Cc2ccccc2)NC(=O)[C@H](Cc2ccccc2)NC(=O)[C@H](CC(N)=O)NC(=O)[C@H](CCCCN)NC1=O [Somatostatin, somatostatin] | 181.29 | 224.77 | 35.13 | 43.62 | 371 | 303 | 67 |  |  |  |  |  | Organ Weight, Caecum [1, 7]: 156 mg; Organ Weight, Colon [1, 7]: 316 mg; Organ Weight, Kidneys [1, 7]: 534 mg; Organ Weight, Liver [1, 7]: 1441 mg; Organ Weight, Stomach [1, 7]: 232 mg |
| PYY: 36 amino acid hormonal peptide, produced by "L type" endocrine cells; member of the pancreatic polypeptide family [Peptide YY] | 194.22 | 253.93 | 36.54 | 47.71 | 431 | 369 | 63 | 134 | 315 | 468 | 1274 | 230 | metabolic cost of total glucose uptake (total nmol ATP expended per nmol of 3OMG uptake) [4]: less; increase in active glucose transport expressed per unit of body weight (Table 2 footnote) ([3]; compared to saline control): 46; increase in active glucose transport expressed per unit of fasting body weight ([3]; compared to the saline control group): 46%; active glucose transport, comparison with saline control group ([3]; per milligram of intestinal tissue): statistically significant increase; water and electrolyte absorption from the small intestine [5]: dose-dependent increase |
| Transforming Growth Factor alpha [TGFα] | 179.01 | 238.76 | 36.03 | 47.96 | 410 | 347 | 64 | 156 | 379 | 522 | 1442 | 243 |  |
| recombinant bovine growth hormone: recombinant bovine growth hormone injected in sheep (cited Ph.D. thesis) (protein, UniProt P01246 27-217, looked up) Somatotropin: AFPAMSLSGLFANAVLRAQHLHQLAADTFKEFERTYIPEGQRYSIQNTQVAFCFSETIPAPTGKNEAQQKSDLELLRISLLLIQSWLGPLQFLSRVFTNSLVFGTSDRVYEKLKDLEEGILALMRELEDGTPRAGQILKQTYDKFDTNMRSDDALLKNYGLLSCFRKDLHKTETYLRVMKCRRFGEASCAF |  |  |  |  |  |  |  |  |  |  |  |  | increase of sodium-dependent duodenal active transport of glucose [6]: approximately 60%; increase of transport of proline [6]: approximately 30% |
